# Reference: US11802133B2, “Heterocyclic compounds as monoacylglycerol lipase inhibitors” (Hoffmann-La Roche Inc., priority 2018, dated 2023)
# Biological target: MAGL (recombinant wild-type) (Homo sapiens (Human), UniProt Q99685)
# Test: 4-NPA assay: MAGL inhibitory activity by hydrolysis of 4-nitrophenylacetate (absorbance at 405 nm)
# Format: biochemical
# Details: measured in 4-NPA assay (footnote [a]); 1 nM MAGL, 300 μM 4-nitrophenylacetate
# Protocol: This assay is hereinafter abbreviated “4-NPA assay”.
# The plate was shaked for 1 min at 2000 rpm (Variomag Teleshake) and then incubated for 15 min at RT. […] The final concentrations in the assay were 1 nM MAGL and 300 μM 4-Nitrophenylacetate. […] A second measurement was then done after incubation for 80 min at RT. From the two measurements, the slope was calculated by subtracting the first from the second measurement.
# Sequence of MAGL (recombinant wild-type) (Q99685 whole entry, species assumed): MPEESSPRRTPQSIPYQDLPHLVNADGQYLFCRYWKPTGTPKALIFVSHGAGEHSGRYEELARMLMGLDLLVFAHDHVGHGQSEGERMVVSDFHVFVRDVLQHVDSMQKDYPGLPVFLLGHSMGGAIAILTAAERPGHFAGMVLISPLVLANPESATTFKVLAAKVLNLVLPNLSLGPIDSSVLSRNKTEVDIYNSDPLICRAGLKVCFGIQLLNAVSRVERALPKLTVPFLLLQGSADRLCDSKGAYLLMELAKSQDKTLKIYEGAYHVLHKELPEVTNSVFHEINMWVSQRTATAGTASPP
row,Structure (SMILES),IC50 [nM]
1,O=C1CO[C@H]2CCN(C(=O)N3CCC(Cc4ccc(C(F)(F)F)cn4)CC3)C[C@H]2N1 [Example 25],452
2,O=C1CO[C@@H]2CCN(C(=O)N3CC(OCc4ccc(C(F)(F)F)cc4F)C3)C[C@@H]2N1 [Example 30],273
3,O=C1CO[C@H]2CCN(C(=O)N3CCC(Cc4ccc(OC(F)(F)F)cc4)CC3)C[C@H]2N1 [Example 31],49
4,O=C1CO[C@H]2CCN(C(=O)N3CCC(COc4ccc(F)cc4F)CC3)C[C@H]2N1 [Example 32],20
5,O=C1CO[C@H]2CCN(C(=O)N3CCC(Cc4ccc(Cl)c(F)c4)CC3)C[C@H]2N1 [Example 33],4
6,O=C1CO[C@H]2CCN(C(=O)N3CCC(Cc4ccc(Cl)cc4)CC3)C[C@H]2N1 [Example 35],19
7,O=C1CO[C@H]2CCN(C(=O)N3CC(Cc4ccc(C(F)(F)F)cc4)C3)C[C@H]2N1 [Example 36],119
8,"O=C1CO[C@H]2CCN(C(=O)N3CCC(CN4CCC(F)(F)CC4)CC3)C[C@H]2N1 [Example 37, (4aR,8aS)-6-(4-((4,4-Difluoropiperidin-1-yl)methyl)piperidine-1-carbonyl)hexahydro-2H-pyrido[4,3-b][1,4]oxazin-3(4H)-one]",1300
9,CC(C)(C)c1cnc(CC2CCN(C(=O)N3CC[C@@H]4OCC(=O)N[C@@H]4C3)CC2)o1 [Example 38],160
10,"O=C1CO[C@H]2CCN(C(=O)N3CCC(COc4ccc(C(F)(F)F)nc4)CC3)C[C@H]2N1 [Example 43, (4aR,8aS)-6-(4-(((6-(trifluoromethyl)pyridin-3-yl)oxy)methyl)piperidine-1-carbonyl)hexahydro-2H-pyrido[4,3-b][1,4]oxazin-3(4H)-one]",529
11,O=C1CO[C@@H]2CCN(C(=O)N3CCC(COc4ccc(OC(F)(F)F)cc4Cl)CC3)C[C@@H]2N1 [Example 45],850
12,O=C1CO[C@H]2CCN(C(=O)N3CCC(COc4ccc(OC(F)(F)F)cc4Cl)CC3)C[C@H]2N1 [Example 46],5
13,O=C1CO[C@H]2CCN(C(=O)N3CC(COc4ccc(C(F)(F)F)cc4F)C3)C[C@H]2N1 [Example 47],5
14,CC1(COc2ccc(F)cc2Cl)CCN(C(=O)N2CC[C@H]3OCC(=O)N[C@H]3C2)CC1 [Example 48],288
15,O=C1CO[C@H]2CCN(C(=O)N3CCC(COc4ccc(F)cc4C(F)(F)F)CC3)C[C@H]2N1 [Example 51],10
16,O=C1CO[C@H]2CCN(C(=O)N3CCC(COc4ccc(C(F)(F)F)cc4F)CC3)C[C@H]2N1 [Example 52],58
17,O=C1CO[C@H]2CCN(C(=O)N3CCC(Cc4ccc(C(F)(F)F)cc4N4CCCC4)CC3)C[C@H]2N1 [Example 53],6
18,N#Cc1cc(F)ccc1OCC1CCN(C(=O)N2CC[C@@H]3OCC(=O)N[C@@H]3C2)CC1 [Example 55],79

row,Structure (SMILES),IC50 [nM]
1,O=C1CO[C@H]2CCN(C(=O)N3CCN(Cc4ccc(C(F)(F)F)cc4N4CCCC4)CC3)C[C@H]2N1 [Example 56],42
2,O=C1CO[C@H]2CCN(C(=O)N3CC(COc4ccc(F)cc4Cl)C3)C[C@H]2N1 [Example 57],49
3,O=C1CO[C@H]2CCN(C(=O)N3CCC(Cc4ccc(C(F)(F)F)cc4C4CCCC4)CC3)C[C@H]2N1 [Example 58],3
4,N#Cc1ccc(OCC2CCN(C(=O)N3CC[C@@H]4OCC(=O)N[C@@H]4C3)CC2)c(Cl)c1 [Example 59],12
5,O=C1CO[C@H]2CCN(C(=O)N3CCC(Cn4cnc(C(F)(F)F)c4)CC3)C[C@H]2N1 [Example 60],680
6,Cc1cc(F)ccc1OCC1CCN(C(=O)N2CC[C@@H]3OCC(=O)N[C@@H]3C2)CC1 [Example 61],11
7,O=C1CO[C@H]2CCN(C(=O)N3CC(COc4ccc(C(F)(F)F)cc4Cl)C3)C[C@H]2N1 [Example 62],9
8,C[C@H]1CN(C(=O)N2CC[C@@H]3OCC(=O)N[C@@H]3C2)CC[C@H]1COc1ccc(F)cc1Cl [Example 74],3
9,O=C1CO[C@H]2CCN(C(=O)N3CC(OCc4ccc(C(F)(F)F)cc4Cl)C3)C[C@H]2N1 [Example 75],2
10,O=C1CO[C@H]2CCN(C(=O)N3CC(OCc4ccc(OC(F)(F)F)cc4F)C3)C[C@H]2N1 [Example 77],16
11,"CC1(COc2ccc(F)cc2Cl)CCN(C(=O)N2CC[C@@H]3OCC(=O)N[C@@H]3C2)CC1 [Example 79, (4aR,8aS)-6-(4-((2-chloro-4-fluorophenoxy)methyl)-4-methylpiperidine-1-carbonyl)hexahydro-2H-pyrido[4,3-b][1,4]oxazin-3(4H)-one]",1
12,O=C1CO[C@H]2CCN(C(=O)N3CCC(OCc4ccccc4Cl)C3)C[C@H]2N1 (stereo partly drawn) [Example 93],124
13,O=C1CO[C@H]2CCN(C(=O)N3CCC(Cc4ccc(C(F)(F)F)cc4C4CC4)CC3)C[C@H]2N1 [Example 95],8
14,O=C1CO[C@H]2CCN(C(=O)N3CCC(OCc4ccc(Cl)cc4)C3)C[C@H]2N1 (stereo partly drawn) [Example 97],146
15,O=C1CO[C@H]2CCN(C(=O)N3CCC(Cc4ccc(C(F)(F)F)cc4Cl)CC3)C[C@H]2N1 [Example 99],12
16,O=C1CO[C@H]2CCN(C(=O)N3CCC(Cc4ccc(C(F)(F)F)cc4)C3)C[C@H]2N1 (stereo partly drawn) [Example 100],82
17,O=C1CO[C@H]2CCN(C(=O)N3CC(OCc4cc(F)cc(C(F)(F)F)c4)C3)C[C@H]2N1 [Example 101],11
18,"CC1C(OCc2ccc(C(F)(F)F)cc2)CN1C(=O)N1CC[C@@H]2OCC(=O)N[C@@H]2C1 (stereo partly drawn) [Example 105, (4aR,8aS)-6-[2-Methyl-3-[[4-(trifluoromethyl)phenyl]methoxy]azetidine-1-carbonyl]-4,4a,5,7,8,8a-hexahydropyrido[4,3-b][1,4]oxazin-3-one]",285

# Continued, values first:
row,IC50 [nM],Structure (SMILES)
1,7,O=C1CO[C@H]2CCN(C(=O)N3CC(OCc4ccc(C(F)(F)F)cc4F)C3)C[C@H]2N1 [Example 27]
2,18,O=C1CO[C@H]2CCN(C(=O)N3CC(COc4ccc(F)cc4Cl)C3)C[C@H]2N1 [Example 28]
3,5,O=C1CO[C@H]2CCN(C(=O)N3CC(OCc4ccc(C(F)(F)F)cc4F)C3)C[C@H]2N1 [Example 29]
4,438,"N#Cc1ccc(CC2CCN(C(=O)N3CC[C@@H]4OCC(=O)N[C@@H]4C3)CC2)cc1 [Example 34, (+)- or (−)-4-[[1-[(4aR,8aS)-3-Oxo-4,4a,5,7,8,8a-hexahydropyrido[4,3-b][1,4]oxazine-6-carbonyl]-4-piperidyl]methyl]benzonitrile]"
5,116,"COc1ccc(OCC2CCN(C(=O)N3CC[C@@H]4OCC(=O)N[C@@H]4C3)CC2)c(F)c1 [Example 39, (4aR,8aS)-6-[4-[(2-Fluoro-4-methoxyphenoxy)methyl]piperidine-1-carbonyl]-4,4a,5,7,8,8a-hexahydropyrido[4,3-b][1,4]oxazin-3-one]"
6,12,O=C1CO[C@H]2CCN(C(=O)N3CCC(Oc4ccc(C(F)(F)F)cc4Cl)CC3)C[C@H]2N1 [Example 40]
7,1200,"O=C1CO[C@@H]2CCN(C(=O)N3CCC(COc4ccc(C(F)(F)F)nc4)CC3)C[C@@H]2N1 [Example 42, (4aS,8aR)-6-(4-(((6-(Trifluoromethyl)pyridin-3-yl)oxy)methyl)piperidine-1-carbonyl)hexahydro-2H-pyrido[4,3-b][1,4]oxazin-3(4H)-one]"
8,38,O=C1CO[C@H]2CCN(C(=O)N3CCC(Oc4cccc(C(F)(F)F)c4)CC3)C[C@H]2N1 [Example 44]
9,363,O=C1CO[C@@H]2CCN(C(=O)N3CCC(COc4ccc(F)cc4F)CC3)C[C@@H]2N1 [Example 49]
10,8,O=C1CO[C@H]2CCN(C(=O)N3CCC(COc4ccc(Cl)cc4F)CC3)C[C@H]2N1 [Example 50]
11,40,"O=C1CO[C@H]2CCN(C(=O)N3CCC(F)(COc4ccc(F)cc4Cl)CC3)C[C@H]2N1 [Example 64, (4aR,8aS)-6-(4-((2-Chloro-4-fluorophenoxy)methyl)-4-fluoropiperidine-1-carbonyl)hexahydro-2H-pyrido[4,3-b][1,4]oxazin-3(4H)-one]"
12,351,CC(C)(C)c1cnn(CC2CCN(C(=O)N3CC[C@@H]4OCC(=O)N[C@@H]4C3)CC2)c1 [Example 66]
13,120,C[C@H]1O[C@H]2CCN(C(=O)N3CCC(Cc4ccc(C(F)(F)F)cc4)CC3)C[C@H]2NC1=O [Example 67]
14,108,O=C1CO[C@H]2CCN(C(=O)N3CCC(Cc4nc5ccccc5o4)CC3)C[C@H]2N1 [Example 72]
15,8,O=C1CO[C@H]2CCN(C(=O)N3CCC(Oc4ccc(Cl)c(-c5ccc(Cl)cc5)c4)CC3)C[C@H]2N1 [Example 73]
16,8,O=C1CO[C@H]2CCN(C(=O)N3CC(OCc4ccc(C(F)(F)F)cc4)C3)C[C@H]2N1 [Example 76]
17,6,O=C1CO[C@H]2CCN(C(=O)N3CCC(Cc4ccc(C(F)(F)F)cc4-c4cn[nH]c4)CC3)C[C@H]2N1 [Example 81]
18,150,O=C1CO[C@H]2CCN(C(=O)N3CCC(OCc4cccc(Cl)c4)C3)C[C@H]2N1 (stereo partly drawn) [Example 94]
19,293,O=C1CO[C@H]2CCN(C(=O)N3CCC(COc4ccc(Cl)cc4)C3)C[C@H]2N1 (stereo partly drawn) [Example 96]
20,10,Cc1cc(C(F)(F)F)ccc1CC1CCN(C(=O)N2CC[C@@H]3OCC(=O)N[C@@H]3C2)CC1 [Example 98]
21,22,O=C1CO[C@H]2CCN(C(=O)N3CC(COCc4c(F)cccc4C(F)(F)F)C3)C[C@H]2N1 [Example 102]
